Source: patent US9776987B2, “Amide derivatives for GPR119 agonist” (CHONG KUN DANG PHARMACEUTICAL CORP., priority 2013, dated 2017)

Target: T1, human GPR119 receptor (Homo sapiens, UniProt Q8TDV5)
T1 construct: host or cells: GeneBLAzer T-Rex GPR 119 CHO-K1 DA cells (CHO-K1)
T1 sequence (Q8TDV5 1-335): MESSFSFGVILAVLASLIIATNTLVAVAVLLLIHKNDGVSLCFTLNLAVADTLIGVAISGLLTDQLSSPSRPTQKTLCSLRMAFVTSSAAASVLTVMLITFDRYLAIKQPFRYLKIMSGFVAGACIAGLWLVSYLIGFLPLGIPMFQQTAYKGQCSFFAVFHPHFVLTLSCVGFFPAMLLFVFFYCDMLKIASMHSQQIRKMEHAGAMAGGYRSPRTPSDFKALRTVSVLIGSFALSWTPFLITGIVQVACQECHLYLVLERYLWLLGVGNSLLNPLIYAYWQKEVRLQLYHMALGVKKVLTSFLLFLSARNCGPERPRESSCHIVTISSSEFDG
Assay: Activity test for human GPR119 receptor (GeneBLAzer T-Rex GPR 119 CHO-K1 DA cells)
Assay type: cell-based
Conditions: for EC50: human GPR119 receptor expressing CHO-K1 cells, 5 hours treatment, read-out: hGPR119 EC50; for activity for human GPR119 receptor (in words): judgement on the EC50 values of Table 11
Method: 1. Human GPR119 Receptor Cell
As a human GPR119 receptor expression cell for this test, the cell line “GeneBLAzer™ T-Rex GPR 119 CHO-K1 DA cells” that is commercially available from Invitrogen, was used. The cell was incubated in the DMEM media containing 1% dialyzed fetal bovine serum etc. The cell incubator was kept at constant temperature and constant humidity of 37° C., 5% CO2.
2. Activity Test for Human GPR119 Receptor
The human GPR119 receptor expressing cell was used to this test. Each of test compounds was added to be final concentrations of 0.1, 1, 10 μM in 96 well and tested in duplicate. A fixed amount of cell was added to each well of 96 well separately, and then treated with the test compound for 5 hours. After treatment of color development agent for 2 hours, the fluorescence value was determined with plate reader. To the luminous wavelength of control well, which was not treated with the sample, but in which only a vehicle […] was contained, the ratio of the luminous wavelength of test well, which was treated with the sample, was calculated, and then converted to obtain EC50 value.
3. Statistical Processing
All the results were expressed as mean±SD, and each test groups and the control group were compared using student's t-test to adjudge the effects of each test groups.

SMILES | EC50 [nM] | activity for human GPR119 receptor (in words)
CCC(F)(CC)CN1CCC(COc2ccc(-c3ccc(C(=O)N4C[C@@H](F)C[C@H]4C(N)=O)c(F)c3)cc2)CC1 [Compound 1211, (2S,4S)-1-(4′-((1-(2-ethyl-2-fluorobutyl)piperidin-4-yl)methoxy)-3-fluorobiphenylcarbonyl)-4-fluoropyrrolidin-2-carboxamide] | 0.08 | –
NC(=O)[C@@H]1[C@@H](O)CCN1C(=O)c1ccc(-c2ccc(OCC3CCN(CC4(C(F)(F)F)CCC4)CC3)cc2)c(F)c1 [Compound 1220, (2S,3S)-1-(2-fluoro-4′-((1-((1-(trifluoromethyl)cyclobutyl)methyl)piperidin-4-yl)methoxy)biphenylcarbonyl)-3-hydroxypyrrolidin-2-carboxamide] | 0.1 | –
C[C@@]1(C(N)=O)CCCN1C(=O)c1ccc(-c2cnc(OCC3CCN(CC4(C(F)(F)F)CCC4)CC3)cn2)cc1F [Compound 1263, (S)-1-(2-fluoro-4-(5-((1-((1-(trifluoromethyl)cyclobutyl)methyl)piperidin-4-yl)methoxy)pyrazin-2-yl)benzoyl)-2-methylpyrrolidin-2-carboxamide] | 0.04 | excellent activity
CC(C)(CN1CCC(COc2ccc(-c3ccc(C(=O)N4C[C@H](O)C[C@@]4(C)C(N)=O)c(F)c3)cn2)CC1)C(F)(F)F [Compound 1295, (2S,4R)-1-(2-fluoro-4-(6-((1-(3,3,3-trifluoro-2,2-dimethylpropyl)piperidin-4-yl)methoxy)pyridin-3-yl)benzoyl)-4-hydroxy-2-methylpyrrolidin-2-carboxamide] | 18 | excellent activity
CCC(F)(CC)CN1CCC(COc2ccc(-c3ccc(C(=O)N4CC[C@H](O)[C@H]4C(N)=O)cc3)c(F)c2)CC1 [Compound 1245, (2S,3S)-1-(4′-((1-(2-ethyl-2-fluorobutyl)piperidin-4-yl)methoxy)-2′-fluorobiphenylcarbonyl)-3-hydroxypyrrolidin-2-carboxamide] | 1 | –
NC(=O)[C@@H]1C[C@H](F)CN1C(=O)c1ccc(-c2cnc(OCC3CCN(CC4(C(F)(F)F)CCC4)CC3)cn2)cc1 [Compound 1209, (2S,4S)-4-fluoro-1-(4-(5-((1-((1-(trifluoromethyl)cyclobutyl)methyl)piperidin-4-yl)methoxy)pyrazin-2-yl)benzoyl)pyrrolidin-2-carboxamide] | 0.09 | –
CCC(F)(CC)CN1CCC(COc2ccc(-c3ccc(C(=O)N4C[C@H](O)C[C@@H]4C(N)=O)cc3F)cc2)CC1 [Compound 1321, (2R,4R)-1-(4′-((1-(2-ethyl-2-fluorobutyl)piperidin-4-yl)methoxy)-2-fluorobiphenylcarbonyl)-4-hydroxypyrrolidin-2-carboxamide] | 53 | –
CC(C)(CN1CCC(COc2ccc(-c3ccc(C(=O)N4CCC[C@H]4C(N)=O)c(F)c3)nc2)CC1)C(F)(F)F [Compound 1267, (S)-1-(2-fluoro-4-(5-((1-(3,3,3-trifluoro-2,2-dimethylpropyl)piperidin-4-yl)methoxy)pyridin-2-yl)benzoyl)pyrrolidin-2-carboxamide] | 0.09 | excellent activity
NC(=O)[C@@H]1C[C@@H](O)CN1C(=O)c1ccc(-c2ccc(OCC3CCN(CC4(C(F)(F)F)CCC4)CC3)cc2)c(F)c1 [Compound 1255] | 2 | excellent activity
NC(=O)[C@@H]1C[C@@H](O)CN1C(=O)c1ccc(-c2cnc(OCC3CCN(CC4(C(F)(F)F)CCC4)CC3)cn2)cc1F [Compound 1200, (2S,4R)-1-(2-fluoro-4-(5-((1-((1-(trifluoromethyl)cyclobutyl)methyl)piperidin-4-yl)methoxy)pyrazin-2-yl)benzoyl)-4-hydroxypyrrolidin-2-carboxamide] | 0.8 | excellent activity
